From ChEMBL document CHEMBL1287708, “Synthesis, biological evaluation and radiolabelling by 18F-fluoroarylation of a dopamine D3-selective ligand as prospective imaging probe for PET” (Bioorg Med Chem Lett, 2010)

Tests used:
[1] = Lipophilicity, log D of the compound in n-octanol-phosphate buffered saline at pH 7.4; type: physicochemical
[2] = test system: Cortex; assay: Drug uptake in Sprague-Dawley rat cortex at 8.5 MBq, iv measured after 45 mins by autoradiography; type: ADME, organism-based; conditions: in vivo, 0.75 h
[3] = test system: Striatum; assay: Drug uptake in Sprague-Dawley rat striatum at 9.3 MBq, iv measured after 45 mins by autoradiography in presence of 1 mg/kg BP897; type: ADME, organism-based; parameters: dose 1 mg/kg, route intravenous; conditions: in vivo, 0.75 h
[4] = test system: brain ventricle (Rattus norvegicus); assay: Drug uptake in Sprague-Dawley rat brain ventricle at 9.3 MBq, iv measured after 45 mins by autoradiography in presence of 1 mg/kg BP897; conditions: in vivo, 0.75 h
[5] = test system: Cortex; assay: Drug uptake in Sprague-Dawley rat cortex at 9.3 MBq, iv measured after 45 mins by autoradiography in presence of 1 mg/kg BP897; type: ADME, organism-based; parameters: dose 1 mg/kg, route intravenous; conditions: in vivo, 0.75 h
[6] = test system: brain ventricle (Rattus norvegicus); assay: Drug uptake in Sprague-Dawley rat brain ventricle at 8.5 MBq, iv measured after 45 mins by autoradiography; conditions: in vivo, 0.75 h
[7] = test system: Striatum; assay: Drug uptake in Sprague-Dawley rat striatum at 8.5 MBq, iv measured after 45 mins by autoradiography; type: ADME, organism-based; conditions: in vivo, 0.75 h
[8] = target: 5-hydroxytryptamine receptor 2A (Sus scrofa, UniProt P50129); assay: Displacement of [3H]ketanserin from 5-HT2 receptor in porcine cerebral cortex membranes; type: cell membranes, Membrane
[9] = Displacement of [3H][…] from 5-HT1A receptor in porcine cerebral cortex membranes; type: cell membranes, Sus scrofa, Membrane
[10] = target: D(1A) dopamine receptor (Sus scrofa, UniProt P50130); assay: Displacement of [3H][…] from dopamine D1 receptor in porcine cerebral cortex membranes; type: cell membranes, Membrane
[11] = target: T1, D(3) dopamine receptor (Homo sapiens, UniProt P35462); assay: biochemical
Description: Displacement of [3H]spiperone from human dopamine D3 receptor expressed in CHO cells

[12] = Displacement of [3H]prazosin from alpha1 adrenoceptor in porcine cerebral cortex membranes; type: cell membranes, Sus scrofa, Membrane
[13] = target: T2, D(2) dopamine receptor (Homo sapiens, UniProt P14416); assay: Displacement of [3H]spiperone from human dopamine D2long receptor expressed in CHO cells; type: cell-based
[14] = target: T1, D(3) dopamine receptor; assay: Agonist activity at human dopamine D3 receptor expressed in CHO dhfr-negative cells assessed as stimulation of [3H]-thymidine incorporation; type: functional, cell-based
[15] = target: T2, D(2) dopamine receptor; assay: Agonist activity at human dopamine receptor D2long expressed in CHO10001 cells assessed as stimulation of incorporation [3H]-thymidine incorporation; type: functional, cell-based
[16] = target: T3, D(4) dopamine receptor (Homo sapiens, UniProt P21917); assay: Displacement of [3H]spiperone from human dopamine D4.4 receptor expressed in CHO cells; type: cell-based
T3 sequence (P21917 whole entry): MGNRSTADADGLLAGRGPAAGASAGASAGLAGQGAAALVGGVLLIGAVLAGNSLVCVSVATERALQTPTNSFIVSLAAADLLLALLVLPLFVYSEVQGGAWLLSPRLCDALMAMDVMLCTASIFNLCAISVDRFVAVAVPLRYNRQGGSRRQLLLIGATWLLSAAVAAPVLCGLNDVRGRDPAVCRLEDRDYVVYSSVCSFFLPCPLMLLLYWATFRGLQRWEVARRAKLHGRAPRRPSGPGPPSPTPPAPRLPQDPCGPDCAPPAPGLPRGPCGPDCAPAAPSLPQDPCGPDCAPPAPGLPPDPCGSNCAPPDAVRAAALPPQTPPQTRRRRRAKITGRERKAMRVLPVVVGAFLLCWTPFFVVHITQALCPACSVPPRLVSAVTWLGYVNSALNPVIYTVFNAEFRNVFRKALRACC

T1 sequence (P35462 whole entry): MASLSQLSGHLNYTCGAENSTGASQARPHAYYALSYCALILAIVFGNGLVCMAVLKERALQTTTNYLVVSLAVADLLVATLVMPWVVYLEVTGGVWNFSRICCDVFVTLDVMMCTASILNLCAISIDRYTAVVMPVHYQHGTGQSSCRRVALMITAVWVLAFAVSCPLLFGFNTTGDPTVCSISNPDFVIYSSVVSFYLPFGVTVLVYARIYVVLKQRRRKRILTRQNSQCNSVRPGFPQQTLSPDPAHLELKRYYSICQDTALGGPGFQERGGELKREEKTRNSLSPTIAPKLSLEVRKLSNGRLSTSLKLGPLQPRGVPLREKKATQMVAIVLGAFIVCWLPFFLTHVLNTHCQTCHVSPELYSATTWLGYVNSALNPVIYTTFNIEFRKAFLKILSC
T2 sequence (P14416 whole entry): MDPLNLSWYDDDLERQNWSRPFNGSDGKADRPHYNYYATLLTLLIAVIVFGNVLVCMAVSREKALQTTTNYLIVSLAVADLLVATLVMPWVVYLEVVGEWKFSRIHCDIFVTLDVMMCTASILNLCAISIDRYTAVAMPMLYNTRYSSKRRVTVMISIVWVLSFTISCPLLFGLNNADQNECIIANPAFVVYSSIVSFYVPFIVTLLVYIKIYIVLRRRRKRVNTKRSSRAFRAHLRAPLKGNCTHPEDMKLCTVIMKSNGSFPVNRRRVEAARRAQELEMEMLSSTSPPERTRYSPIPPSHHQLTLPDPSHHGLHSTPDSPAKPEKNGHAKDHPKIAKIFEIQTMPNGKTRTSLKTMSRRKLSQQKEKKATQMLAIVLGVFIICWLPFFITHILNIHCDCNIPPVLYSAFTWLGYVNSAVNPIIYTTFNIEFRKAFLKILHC
Sequence of 5-hydroxytryptamine receptor 2A (P50129 whole entry): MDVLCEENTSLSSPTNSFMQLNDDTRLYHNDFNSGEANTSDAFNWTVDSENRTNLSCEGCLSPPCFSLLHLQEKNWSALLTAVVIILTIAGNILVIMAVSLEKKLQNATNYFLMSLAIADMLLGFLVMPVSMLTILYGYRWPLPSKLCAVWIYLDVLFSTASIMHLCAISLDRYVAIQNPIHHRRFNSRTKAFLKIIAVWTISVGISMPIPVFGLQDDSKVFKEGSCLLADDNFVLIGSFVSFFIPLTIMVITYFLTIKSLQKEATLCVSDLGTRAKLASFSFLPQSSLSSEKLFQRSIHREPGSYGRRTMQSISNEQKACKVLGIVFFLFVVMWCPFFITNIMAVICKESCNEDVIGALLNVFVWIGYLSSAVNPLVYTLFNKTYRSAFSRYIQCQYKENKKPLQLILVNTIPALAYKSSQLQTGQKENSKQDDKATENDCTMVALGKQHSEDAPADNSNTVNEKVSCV
Sequence of D(1A) dopamine receptor (P50130 whole entry): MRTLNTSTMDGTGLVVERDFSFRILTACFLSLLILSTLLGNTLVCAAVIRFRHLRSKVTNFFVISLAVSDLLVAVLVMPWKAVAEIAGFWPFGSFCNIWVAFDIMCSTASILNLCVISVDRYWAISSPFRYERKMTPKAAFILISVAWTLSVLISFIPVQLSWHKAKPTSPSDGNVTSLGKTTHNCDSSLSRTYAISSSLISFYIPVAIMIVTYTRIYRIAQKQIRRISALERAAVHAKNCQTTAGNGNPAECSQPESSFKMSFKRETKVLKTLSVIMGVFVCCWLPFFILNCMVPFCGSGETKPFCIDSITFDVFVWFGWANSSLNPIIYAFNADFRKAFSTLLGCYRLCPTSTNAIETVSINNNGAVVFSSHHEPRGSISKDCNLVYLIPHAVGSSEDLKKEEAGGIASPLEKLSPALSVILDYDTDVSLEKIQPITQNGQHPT

SMILES	logD [1]	Drug uptake [2]	Drug uptake [3]	Drug uptake [4]	Drug uptake [5]	Drug uptake [6]	Drug uptake [7]	Ki [8]	Ki [9]	Ki [10]	Ki [11]	Ki [12]	Ki [13]	EC50 [14]	EC50 [15]	Ki [16]
COc1ccccc1N1CCN(CCCCNC(=O)/C=C/c2ccc([18F])cc2)CC1	2.07	32293 cpm/mm2	3086 cpm/mm2	18275 cpm/mm2	3120 cpm/mm2	38717 cpm/mm2	28851 cpm/mm2									
COc1ccccc1N1CCN(CCCCNC(=O)/C=C/c2ccc(F)cc2)CC1								330 nM	28 nM	1100 nM	0.34 nM	5.2 nM	27 nM	3.9 nM	1.7 nM	43 nM
N#[11C]c1cccc(N2CCN(CCN3CCC(C(F)(F)F)CC3)C2=O)c1								250 nM	100 nM	270 nM	0.51 nM	8 nM				170 nM
